Consider 18 molecules from PubChem BioAssay (NCI).

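Cultured in 96-well plates, cells were exposed to test compound for 48 hours across five concentrations. TGI marks complete inhibition of growth.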 Where only a bound is given, the exact number is not on record here.

Among the test systems are OVCAR-5 ovarian; MCF7 breast; RPMI-8226 leukemia; SK-MEL-28 melanoma; CCRF-CEM leukemia; TK-10 renal; CAKI-1 renal; MALME-3M melanoma; NCI-H23 lung; NCI-H522 lung; SR leukemia.
Experiment in all cases: NCI anticancer screen, dose series, 48 h

`CN(C)C1COC2Cc3ccccc3C1O2` (stereo not drawn): the TGI with OVCAR-5 ovarian, in the assay on MCF7 breast, with RPMI-8226 leukemia, in the assay on SK-MEL-28 melanoma, in the assay on CCRF-CEM leukemia and in the assay with TK-10 renal was over 100 µM each time. The TGI with CAKI-1 renal, with MALME-3M melanoma, with NCI-H23 lung, in the assay on NCI-H522 lung and in the assay with SR leukemia was over 100 µM in each case.

With `Nc1nc(Cl)cc(NCC2(CO)CC(Cc3ccccc3)C2)n1` (stereo not drawn), the TGI in the assay on OVCAR-5 ovarian is over 100 µM; with MCF7 breast it was over 77.7 µM; in the assay with RPMI-8226 leukemia, over 62.9 µM; in the assay with SK-MEL-28 melanoma, over 100 µM; in the assay on CCRF-CEM leukemia it was over 100 µM; in the assay with TK-10 renal it was over 96.5 µM. The TGI with CAKI-1 renal is over 100 µM; in the assay with MALME-3M melanoma it was over 100 µM; in the assay on NCI-H23 lung, over 100 µM; in the assay with NCI-H522 lung it was over 100 µM; with SR leukemia it was over 56.1 µM.

`CCOC(=O)C(SCCO)C(C(=O)OCC)n1cc(C)c(=O)[nH]c1=O` (stereo not drawn): the TGI with OVCAR-5 ovarian was 32.1 µM; in the assay with MCF7 breast it was 43.5 µM; in the assay with RPMI-8226 leukemia, 44.4 µM; in the assay with SK-MEL-28 melanoma, over 65.6 µM; in the assay with CCRF-CEM leukemia, 8.1 µM; in the assay with TK-10 renal it was over 82.5 µM. The TGI in the assay on CAKI-1 renal was 18.2 µM; in the assay on MALME-3M melanoma it was 38.6 µM; in the assay on NCI-H23 lung, over 78.7 µM; in the assay with NCI-H522 lung, 17.6 µM; in the assay with SR leukemia, 35.5 µM.

Consider `COc1ccc(C2Oc3c(cccc3OC)C=C2[N+](=O)[O-])cc1` (stereo not drawn), for which the TGI in the assay with OVCAR-5 ovarian was 6.48 µM; in the assay with MCF7 breast, 10.8 µM; with RPMI-8226 leukemia it was over 100 µM; in the assay on SK-MEL-28 melanoma, 4.37 µM; in the assay with CCRF-CEM leukemia, over 100 µM; in the assay with TK-10 renal, 7.5 µM. Besides, the TGI in the assay with CAKI-1 renal was 4.31 µM; with MALME-3M melanoma, 10 µM; in the assay on NCI-H23 lung, 12.4 µM; in the assay on NCI-H522 lung, 3.02 µM; with SR leukemia, over 100 µM.

Regarding `N=C(N)c1ccc(-c2ccc(-c3ccc(C(=N)N)cc3)o2)cc1`, the TGI was 99.2 µM with OVCAR-5 ovarian; over 100 µM with MCF7 breast; over 100 µM in the assay with RPMI-8226 leukemia; 71.7 µM in the assay on SK-MEL-28 melanoma; over 100 µM in the assay on CCRF-CEM leukemia; 63 µM in the assay with TK-10 renal. Besides, the TGI with CAKI-1 renal was over 100 µM; in the assay on MALME-3M melanoma it was over 100 µM; in the assay with NCI-H23 lung it was 87 µM; with NCI-H522 lung, over 100 µM; with SR leukemia, over 100 µM.

Consider `CC(C)=CCC/C(C)=C/CC/C(C)=C/CC/C(C=O)=C/CC/C(C)=C\CC/C(C)=C/CC/C(C)=C/CC/C(C)=C/CC1=CC(=O)C=CC1=O`, for which the TGI in the assay with OVCAR-5 ovarian, with MCF7 breast, in the assay with RPMI-8226 leukemia, in the assay on SK-MEL-28 melanoma, with CCRF-CEM leukemia and in the assay with TK-10 renal was over 100 µM in each case. For the same molecule, the TGI with CAKI-1 renal is 74.3 µM; in the assay with MALME-3M melanoma it was 66.3 µM; with NCI-H23 lung, over 100 µM; with NCI-H522 lung it was 32.3 µM; with SR leukemia it was over 100 µM.

As to `COC(=O)c1cc(/C=C2\Cc3cc4c(cc3C2=O)CCC4)cc2c1CCC2`, the TGI in the assay with OVCAR-5 ovarian, in the assay with MCF7 breast, in the assay with RPMI-8226 leukemia, in the assay with SK-MEL-28 melanoma, with CCRF-CEM leukemia and with TK-10 renal was over 100 µM in each case. For the same molecule, the TGI with CAKI-1 renal, with MALME-3M melanoma, with NCI-H23 lung, in the assay with NCI-H522 lung and with SR leukemia was over 100 µM throughout.

For the molecule `CC(=O)O[C@H]1C(=O)[C@@]2(C)[C@H]([C@H](OC(=O)c3ccncc3)[C@]3(O)C[C@H](OC(=O)[C@H](O)[C@@H](NC(=O)c4ccccc4)c4ccccc4)C(C)=C1C3(C)C)[C@]1(OC(C)=O)CO[C@@H]1C[C@@H]2O`, the TGI in the assay with OVCAR-5 ovarian is over 25 µM; with MCF7 breast, over 25 µM; in the assay with RPMI-8226 leukemia, 6.5 µM; in the assay on SK-MEL-28 melanoma, over 25 µM; in the assay with CCRF-CEM leukemia, 10.7 µM; in the assay with TK-10 renal, over 25 µM. In addition, the TGI was over 25 µM in the assay with CAKI-1 renal; over 25 µM in the assay with MALME-3M melanoma; over 25 µM with NCI-H23 lung; 10.2 µM in the assay on NCI-H522 lung; over 25 µM in the assay with SR leukemia.

For the molecule `Cc1ccc2cccc(OC(=O)c3cc4c(cc3Cl)Sc3nccn3S4(=O)=O)c2n1`, the TGI in the assay with OVCAR-5 ovarian is over 61.2 µM; in the assay on MCF7 breast, 18.4 µM; with RPMI-8226 leukemia it was 7.03 µM; in the assay on SK-MEL-28 melanoma it was 30.8 µM; with CCRF-CEM leukemia, 17 µM; in the assay with TK-10 renal, 30.9 µM. Besides, the TGI in the assay with CAKI-1 renal is over 79.9 µM; in the assay with MALME-3M melanoma, 47.4 µM; in the assay on NCI-H23 lung it was 63.6 µM; with NCI-H522 lung it was 38 µM; in the assay on SR leukemia it was 16.7 µM.

Consider `CN(C)CC1CN(C(=O)Nc2ccccc2)C(=N)O1` (stereo not drawn), for which the TGI in the assay with OVCAR-5 ovarian, in the assay with MCF7 breast, in the assay with RPMI-8226 leukemia, in the assay with SK-MEL-28 melanoma, with CCRF-CEM leukemia and with TK-10 renal was over 100 µM in each case. Also, the TGI in the assay with CAKI-1 renal, in the assay on MALME-3M melanoma, with NCI-H23 lung, in the assay on NCI-H522 lung and in the assay on SR leukemia was over 100 µM in each case.

For the molecule `CCOC(=O)C1C(=O)CC(C)(O)C(C(=O)OCC)C1c1ccc(OC)cc1` (stereo not drawn), the TGI in the assay with OVCAR-5 ovarian, in the assay with MCF7 breast, in the assay with RPMI-8226 leukemia, with SK-MEL-28 melanoma, in the assay with CCRF-CEM leukemia and in the assay with TK-10 renal was over 100 µM throughout. Further, the TGI with CAKI-1 renal, in the assay on MALME-3M melanoma, with NCI-H23 lung, in the assay with NCI-H522 lung and with SR leukemia was over 100 µM each time.

For the molecule `O=C1NCN(c2ccccc2)C12CCN(CCCSc1ccc(F)cc1)CC2`, the TGI with OVCAR-5 ovarian is over 100 µM; in the assay on MCF7 breast, over 39.9 µM; in the assay with RPMI-8226 leukemia, over 100 µM; in the assay with SK-MEL-28 melanoma, over 100 µM; in the assay with CCRF-CEM leukemia it was over 71.4 µM; with TK-10 renal, 99.1 µM. Besides, the TGI is over 91.9 µM in the assay on CAKI-1 renal; 52.7 µM in the assay with MALME-3M melanoma; 97.3 µM in the assay on NCI-H23 lung; over 100 µM in the assay on NCI-H522 lung; over 81.7 µM in the assay with SR leukemia.

Regarding `COc1cc2c(cc1OC)C(=O)/C(=C/c1ccccc1)C2`, the TGI is over 100 µM with OVCAR-5 ovarian; over 100 µM in the assay on MCF7 breast; 71.6 µM with RPMI-8226 leukemia; over 100 µM in the assay on SK-MEL-28 melanoma; 99.4 µM in the assay on CCRF-CEM leukemia; over 100 µM in the assay with TK-10 renal. Moreover, the TGI in the assay with CAKI-1 renal, with MALME-3M melanoma, in the assay with NCI-H23 lung, in the assay with NCI-H522 lung and in the assay with SR leukemia was over 100 µM in each case.

On to `COc1cc(C2c3cc4c(cc3OC(O)C2C)OCO4)cc(OC)c1O` (stereo not drawn), for which the TGI in the assay with OVCAR-5 ovarian was over 100 µM; in the assay with MCF7 breast, over 100 µM; in the assay with RPMI-8226 leukemia, over 100 µM; in the assay on SK-MEL-28 melanoma, over 91.6 µM; in the assay with CCRF-CEM leukemia, over 100 µM; in the assay on TK-10 renal, 57.4 µM. The TGI is over 100 µM in the assay on CAKI-1 renal; 29.4 µM with MALME-3M melanoma; over 100 µM with NCI-H23 lung; 13.3 µM in the assay on NCI-H522 lung; over 100 µM in the assay on SR leukemia.

`CCC(CCCCC1CC[C@H]2CC(=O)C[C@@H]12)OC` (stereo partly drawn): the TGI with OVCAR-5 ovarian, in the assay on MCF7 breast, in the assay on RPMI-8226 leukemia, with SK-MEL-28 melanoma, in the assay on CCRF-CEM leukemia and in the assay with TK-10 renal was over 100 µM throughout. Also, the TGI with CAKI-1 renal, in the assay on MALME-3M melanoma, with NCI-H23 lung, in the assay with NCI-H522 lung and in the assay on SR leukemia was over 100 µM in each case.

Regarding `CCOC(=O)c1nc2ccc(C(F)(F)F)cc2nc1Nc1ccc(OC)c(OC)c1`, the TGI with OVCAR-5 ovarian, in the assay with MCF7 breast, in the assay with RPMI-8226 leukemia, in the assay on SK-MEL-28 melanoma, in the assay on CCRF-CEM leukemia and in the assay with TK-10 renal was over 100 µM throughout. Also, the TGI is 86.5 µM with CAKI-1 renal; over 100 µM in the assay with MALME-3M melanoma; over 100 µM with NCI-H23 lung; over 100 µM in the assay with NCI-H522 lung; over 100 µM in the assay on SR leukemia.

As for `CCCCN1C(=O)C[C@H]2[C@@H]3CCc4cc(OCCN5CCCC5)ccc4[C@H]3CC[C@]2(C)C1=O`, the TGI with OVCAR-5 ovarian turned out to be 24.3 µM; with MCF7 breast, 15.6 µM; with RPMI-8226 leukemia, 9.53 µM; with SK-MEL-28 melanoma, 12 µM; in the assay on CCRF-CEM leukemia, 15 µM; in the assay with TK-10 renal, 28.3 µM. In addition, the TGI came out at 19.2 µM in the assay on CAKI-1 renal; 16.1 µM in the assay on MALME-3M melanoma; 25.6 µM in the assay on NCI-H23 lung; 22.7 µM in the assay on NCI-H522 lung; 23.6 µM in the assay with SR leukemia.

For the molecule `Cc1ccc(OCCn2cc(Nc3ccccc3)c(=O)[nH]c2=O)cc1`, the TGI with OVCAR-5 ovarian, with MCF7 breast, in the assay on RPMI-8226 leukemia, in the assay on SK-MEL-28 melanoma, in the assay with CCRF-CEM leukemia and in the assay on TK-10 renal was over 100 µM in each case. For the same molecule, the TGI in the assay on CAKI-1 renal, in the assay with MALME-3M melanoma, with NCI-H23 lung, with NCI-H522 lung and with SR leukemia was over 100 µM in each case.
